{"source": "patent US12076401B2", "about": "“Benzamide and active compound compositions and methods of use” (TRANSLATIONAL DRUG DEVELOPMENT, LLC, priority 2015, dated 2024)", "key": {"[1]": {"details": "cited from earlier work"}, "cancer cell models": {"system": "cancer cell models", "details": "cited from earlier work"}, "[2]": {"assay": "Pharmacokinetic studies, plasma of healthy mice", "format": "in vivo", "details": "mouse; for AUC: plasma, 5 mg/kg oral (PO); for Half-life: 1.0 mg/kg IV; for AUC0-∞: 5.0 mg/kg PO", "description": "Plasma samples were collected from healthy mice and analyzed for levels of compound ID #24, ID #25, and ID #26 and reported in Table 6. In brief, compounds were individually and accurately weighed out to produce a stock solution in Dimethyl-sulfoxide (DMSO) at a concentration of 2 mg/mL and stored at −20° C. From the stock solution, a working stock was prepared by diluting it in Methanol-Water 50:50 (v/v) at 20 μg/mL for calibration curve preparation and stored at 4° C. Standards used for quantitation and quality control samples (QC's) were prepared on the same day of sample processing using blank plasma obtained from non-treated mice. For each analyte, standards were prepared through serial dilution of the working stock at concentrations of 0.1, 0.5, 1.0, 10, 50, 100, 500 and 1000 ng/mL; QC's were prepared at intermediate concentrations of 0.75, 7.5, 75 and 750 ng/mL. Plasma samples were stored at −80° C. until ready for analysis and then placed on ice for thawing. An aliquot of 20 μL for samples, standards and QC's, were transferred into a 96-well extraction plate according to a pre-defined layout. Appropriate volume of Methanol-Formic Acid 99.9-0.1 containing internal standard (Verapamil at 25 ng/mL) was added to each well and samples were extracted under vacuum. Eluent was then transferred into a LCMS plate for analysis using a suitable column for separation and MRM detection. Concentration of analytes was calculated based on the calibration curve and analyzed for pharmacokinetic parameters by using Non-compartmental analysis (NCA) using WinNonlin Phoenix software. Parameters such as Cmax, Tmax, half-life, AUC(0-last), AUC(0-∞), volume of distribution (Vss) and clearance (Cl/F) were reported.\nThe analogs were tested for pharmacokinetic analysis in the mouse with doses of 1 mg/kg for intravenous (IV) route and 5 mg/kg for oral (PO) route. […] Overall exposure following IV dose also favored compound ID #24 with AUC0-∞ 1488.1 hr*ng/mL whereas compound ID #25 and ID #26 were 329.1 and 1193.7 hr*ng/mL, respectively."}, "[3]": {"system": "MM1.S human myeloma cells", "assay": "Human MM1.S myeloma xenograft, single agent screening", "format": "in vivo", "details": "female athymic nude mice; 100 mg/kg daily for 19 days, oral gavage", "from_the_text": "Body weights and tumor measurements were collected twice weekly."}, "[4]": {"system": "intratumoral CD8 T-cells and natural killer cells", "assay": "Intratumoral immune cells in tumor bearing mice", "format": "in vivo"}, "MC-38": {"system": "MC-38", "assay": "MC-38 murine colon tumor volume growth", "format": "in vivo", "details": "150.00 mg/kg PO QD to end, in mm³", "description": "• Group 1 Isotype Control 5.00 mg/kg+Compound ID #24 Vehicle • Group 3 Compound ID #24 150.00 mg/kg • Group 4 anti-mGITR 5.00 mg/kg • Group 6 anti-mGITR 5.00 mg/kg+Compound ID #24 150.00 mg/kg"}, "U266": {"system": "U266", "assay": "CellTiter-Glo cell viability, U266 (Myeloma)", "format": "cell-based", "description": "Compound ID #24 (a compound of formula (I)) and Compound ID #26 (a compound of formula (II)) were tested for the inhibition of cancer cell proliferation. Cell viability in the presence of varying concentrations of Compound ID #24 and Compound ID #26 at different time points was used to assess cytotoxicity and the effect of the compounds on cell proliferation. The data clearly show the surprising and unexpected increased anti-cancer activity associated with Compound ID #24 compared to Compound ID #26.\nCell Viability Assay—Cell viability was measured by the CellTiter-Glo® cell viability assay Promega (Madison, Wis.). The CellTiter-Glo® Luminescent Cell Viability Assay is a homogeneous method to determine the number of viable cells in culture based on quantitation of the ATP present, which signals the presence of metabolically active cells. Following treatment, CellTiter-Glo® is added to treatment wells and incubated at 37° C. luminescence values were measured at using a Molecular Devices Spectramax microplate reader.\nSingle Agent Studies—Cells were grown to 70% confluency, trypsinized, counted, and seeded in 96 well flat-bottom plates at a final concentration of 2.5×10^3-5×10^3 cells/well (Day 0). Cells were allowed to incubate in growth media for 24 hours. […] Viable cell numbers are quantified by the CellTiter-Glo® cell viability assay as described above. […]"}, "CT-26": {"system": "CT-26", "assay": "CT-26 murine colon tumor volume growth", "format": "in vivo", "details": "150.00 mg/kg PO QD to end + Isotype Control 0.05 mg/kg IP QDx1, in mm³", "description": "• Group 1 Isotype Control+Compound ID #24 Vehicle Control • Group 2 Isotype Control+Compound ID #24 • Group 3 Anti-m4-1BB 0.05 mg/kg • Group 4 Anti-m4-1BB 0.10 mg/kg • Group 5 Anti-m4-1BB 0.05 mg/kg+Compound ID #24"}}, "note": "“And” between values parts separate entries of the source, which are not always exact repeats. Equal values may be shown once. Read-outs that look alike come from different tables or passages of the source."}
{"smiles": "Nc1ncn([C@@H]2O[C@H](CO)[C@@H](O)[C@H]2O)c(=O)n1", "note": "[Azacitidine, 4-amino-1-β-D-ribofuranozyl-s-triazin-2(1H)-one]", "values": [{"measurement": "Solubility", "setting": "[1]; acetone, ethanol and methyl ketone", "value": "insoluble"}, {"measurement": "Solubility", "setting": "[1]; dimethylsulfoxide (DMSO)", "value": "soluble"}, {"measurement": "Solubility", "setting": "[1]; ethanol/water (50/50), propylene glycol and polyethylene glycol", "value": "slightly soluble"}, {"measurement": "Solubility", "setting": "[1]; water, water-saturated octanol, 5% dextrose in water, N-methyl-2-pyrrolidone, normal saline and 5% Tween 80 in water", "value": "sparingly soluble"}]}
{"smiles": "Nc1ncn([C@H]2C[C@H](O)[C@@H](CO)O2)c(=O)n1", "note": "[Decitabine, 4-amino-1-(2-deoxy-β-D-erythro-pentofuranosyl)-1,3,5-triazin-2(1H)one]", "values": [{"measurement": "Solubility", "setting": "[1]; dimethylsulfoxide (DMSO)", "value": "soluble"}, {"measurement": "Solubility", "setting": "[1]; ethanol/water (50/50), methanol/water (50/50) and methanol", "value": "slightly soluble"}, {"measurement": "Solubility", "setting": "[1]; water", "value": "sparingly soluble"}, {"measurement": "cell cycle, clonogenic survival and growth in cells", "setting": "cancer cell models; Palii et al. 2008", "value": "causes G2 arrest, reduces clonogenic survival, and inhibits growth in cells"}, {"measurement": "effect on growth and apoptosis of cancer cell models", "setting": "cancer cell models; through re-expression of silenced genes", "value": "suppression of growth and apoptosis"}]}
{"smiles": "O=C(NO)c1ccc(Nc2nc3ccccc3n2C2CCCCCC2)cc1", "note": "[Compound ID #26, 4-(1-cycloheptyl-1H-benzo[d]imidazol-2-ylamino)-N-hydroxybenzamide]", "values": [{"measurement": "AUC", "setting": "[2]", "value": 1650, "unit": "ng·h/mL"}]}
{"smiles": "O=C(NO)c1ccc(Nc2nc3ccccc3n2CC2CCCCC2)cc1", "note": "[Compound ID #24, 4-(1-(cyclohexylmethyl)-1H-benzo[d]imidazol-2-ylamino)-N-hydroxybenzamide]", "values": [{"measurement": "anticancer activity (tumor volume)", "setting": "[3]", "value": "significantly superior anticancer activity when compared to either Compound ID #25 or Compound ID #26"}, {"measurement": "numbers of intratumoral CD8 T-cells and natural killer cells", "setting": "[4]", "value": "increased numbers of intratumoral CD8 T-cells and natural killer cells"}, {"measurement": "Tumor volume, Mean", "setting": "MC-38; Day 1", "value": 94.5}, {"measurement": "Tumor volume, Median", "setting": "MC-38; Day 1", "value": 92.2}, {"measurement": "Tumor volume, individual animals", "setting": "MC-38; Day 1", "value": "68 and 81 and 103 and 128 and 92"}, {"measurement": "Tumor volume, Mean", "setting": "MC-38; Day 6", "value": 141.8}, {"measurement": "Tumor volume, Median", "setting": "MC-38; Day 6", "value": 137.6}, {"measurement": "Tumor volume, individual animals", "setting": "MC-38; Day 6", "value": "72 and 92 and 138 and 231 and 176"}, {"measurement": "Tumor volume, Mean", "setting": "MC-38; Day 9", "value": 154.8}, {"measurement": "Tumor volume, Median", "setting": "MC-38; Day 9", "value": 148.0}, {"measurement": "Tumor volume, individual animals", "setting": "MC-38; Day 9", "value": "83 and 121 and 148 and 240 and 182"}, {"measurement": "Tumor volume, Mean", "setting": "MC-38; Day 12", "value": 187.8}, {"measurement": "Tumor volume, Median", "setting": "MC-38; Day 12", "value": 190.0}, {"measurement": "Tumor volume, individual animals", "setting": "MC-38; Day 12", "value": "123 and 158 and 222 and 248"}, {"measurement": "Tumor volume, Mean", "setting": "MC-38; Day 15", "value": 235.9}, {"measurement": "Tumor volume, Median", "setting": "MC-38; Day 15", "value": 251.8}, {"measurement": "Tumor volume, individual animals", "setting": "MC-38; Day 15", "value": "135 and 213 and 290 and 305"}, {"measurement": "Tumor volume, Mean", "setting": "MC-38; Day 19", "value": 285.2}, {"measurement": "Tumor volume, Median", "setting": "MC-38; Day 19", "value": 289.3}, {"measurement": "Tumor volume, individual animals", "setting": "MC-38; Day 19", "value": "178 and 289 and 388"}, {"measurement": "Tumor volume, Mean", "setting": "MC-38; Day 22", "value": 389.1}, {"measurement": "Tumor volume, Median", "setting": "MC-38; Day 22", "value": 397.8}, {"measurement": "Tumor volume, individual animals", "setting": "MC-38; Day 22", "value": "244 and 398 and 526"}, {"measurement": "Tumor volume, Mean", "setting": "MC-38; Day 26", "value": 566.5}, {"measurement": "Tumor volume, Median", "setting": "MC-38; Day 26", "value": 540.0}, {"measurement": "Tumor volume, individual animals", "setting": "MC-38; Day 26", "value": "370 and 540 and 789"}, {"measurement": "Tumor volume, Mean", "setting": "MC-38; Day 29", "value": 714.8}, {"measurement": "Tumor volume, Median", "setting": "MC-38; Day 29", "value": 646.1}, {"measurement": "Tumor volume, individual animals", "setting": "MC-38; Day 29", "value": "495 and 646 and 1,003"}, {"measurement": "Improvement ID#24 over ID#26 Fold Change", "setting": "U266", "value": 3.50}, {"measurement": "Half-life", "setting": "[2]", "value": 3.70, "unit": "h"}, {"measurement": "AUC0-∞", "setting": "[2]", "value": 3974.82, "unit": "ng·h/mL"}, {"measurement": "AUC", "setting": "[2]", "value": 3970, "unit": "ng·h/mL"}, {"measurement": "Tumor volume, Mean", "setting": "CT-26; Day 1", "value": 122.0}, {"measurement": "Tumor volume, Median", "setting": "CT-26; Day 1", "value": 113.8}, {"measurement": "Tumor volume, individual animals", "setting": "CT-26; Day 1", "value": "106 and 85 and 156 and 149 and 114"}, {"measurement": "Tumor volume, Mean", "setting": "CT-26; Day 5", "value": 165.5}, {"measurement": "Tumor volume, Median", "setting": "CT-26; Day 5", "value": 144.8}, {"measurement": "Tumor volume, individual animals", "setting": "CT-26; Day 5", "value": "131 and 73 and 299 and 158"}, {"measurement": "Tumor volume, Mean", "setting": "CT-26; Day 8", "value": 215.2}, {"measurement": "Tumor volume, Median", "setting": "CT-26; Day 8", "value": 208.7}, {"measurement": "Tumor volume, individual animals", "setting": "CT-26; Day 8", "value": "176 and 65 and 378 and 242"}, {"measurement": "Tumor volume, Mean", "setting": "CT-26; Day 9", "value": 241.8}, {"measurement": "Tumor volume, Median", "setting": "CT-26; Day 9", "value": 245.2}, {"measurement": "Tumor volume, individual animals", "setting": "CT-26; Day 9", "value": "198 and 65 and 412 and 292"}, {"measurement": "Tumor volume, Mean", "setting": "CT-26; Day 12", "value": 307.4}, {"measurement": "Tumor volume, Median", "setting": "CT-26; Day 12", "value": 285.7}, {"measurement": "Tumor volume, individual animals", "setting": "CT-26; Day 12", "value": "212 and 68 and 590 and 359"}, {"measurement": "Tumor volume, Mean", "setting": "CT-26; Day 14", "value": 382.7}, {"measurement": "Tumor volume, Median", "setting": "CT-26; Day 14", "value": 352.6}, {"measurement": "Tumor volume, individual animals", "setting": "CT-26; Day 14", "value": "254 and 67 and 758 and 452"}]}
{"smiles": "O=C(NO)c1ccc(Nc2nc3ccccc3n2C2CCCCC2)cc1", "note": "[Compound ID #25, 4-(1-cyclohexyl-1H-benzo[d]imidazol-2-ylamino)-N-hydroxybenzamide]", "values": [{"measurement": "Half-life", "setting": "[2]", "value": 1.20, "unit": "h"}, {"measurement": "AUC0-∞", "setting": "[2]", "value": 1277.26, "unit": "ng·h/mL"}, {"measurement": "AUC", "setting": "[2]", "value": 1280, "unit": "ng·h/mL"}]}
